Measured values: patent publication US5237060A, “Process of preparing enantiomerically pure 1,8-bridged 4-quinolone-3-carboxylic acids” (Bayer Aktiengesellschaft, priority 1985, dated 1993)
Converted amounts (≈) assume the structure as drawn. Read-outs that look alike come from different tables or passages of the source.

Legend:
Assay in all cases: MIC, agar dilution test (isosensitest medium)
Type in all cases: cell-based
E. coli 4418 = conditions: Escherichia coli
Source text: (§1) Agar dilution test (isosensitest medium); Denley multipoint inoculator

E. coli A 261 = conditions: Escherichia coli, A261
Source text: as §1

E. coli T 7 = conditions: Escherichia coli, T7
Source text: as §1

Klebsiella 57 USA = tested on: Klebsiella 57 USA
Source text: as §1

Klebsiella 6318 = tested on: Klebsiella 6318
Source text: as §1

Klebsiella 63 = tested on: Klebsiella 63
Source text: as §1

Proteus 1875 = tested on: Proteus 1875
Source text: as §1

Proteus Vulg. 1017 = tested on: Proteus Vulg. 1017
Source text: as §1

Providencia 12012 = tested on: Providencia 12012
Source text: as §1

Pseudomonas Ellsworth = tested on: Pseudomonas Ellsworth
Source text: as §1

Pseudomonas Walter = tested on: Pseudomonas Walter
Source text: as §1

Staph. 133 = tested on: Staph. 133
Source text: as §1

Staph. 1756 = tested on: Staph. 1756
Source text: as §1

Staph. F 422 = tested on: Staph. F 422
Source text: as §1

Strepto 9790 = tested on: Strepto 9790
Source text: as §1

[1] = E. coli 4418, agar dilution, read-out: MIC
[2] = Klebsiella 57 USA, agar dilution, read-out: MIC
[3] = Klebsiella 6318, agar dilution, read-out: MIC
[4] = Klebsiella 63, agar dilution, read-out: MIC
[5] = Proteus 1875, agar dilution, read-out: MIC
[6] = Proteus Vulg. 1017, agar dilution, read-out: MIC

CC1COc2c(N3CCN(C)CC3)c(F)cc3c(=O)c(C(=O)O)cn1c23 (racemic) [Ofloxacin, reference compound]
MIC (E. coli 4418; [1]): 0.25 µg/mL (≈ 0.692 µM)
MIC (E. coli A 261): 0.03 µg/mL (≈ 0.083 µM)
MIC (E. coli T 7): 0.06 µg/mL (≈ 0.166 µM)
MIC (Klebsiella 57 USA; [2]): 0.25 µg/mL (≈ 0.692 µM)
MIC (Klebsiella 6318; [3]): 0.25 µg/mL (≈ 0.692 µM)
MIC (Klebsiella 63; Klebsiella, 63): 0.125 µg/mL (≈ 0.346 µM)
MIC (Proteus 1875): 0.125 µg/mL (≈ 0.346 µM)
MIC (Proteus Vulg. 1017): 0.125 µg/mL (≈ 0.346 µM)
MIC (Providencia 12012): 0.25 µg/mL (≈ 0.692 µM)
MIC (Pseudomonas Ellsworth): 0.5 µg/mL (≈ 1.38 µM)
MIC (Pseudomonas Walter): 2 µg/mL (≈ 5.53 µM)
MIC (Staph. 133): 0.5 µg/mL (≈ 1.38 µM)
MIC (Staph. 1756): 0.5 µg/mL (≈ 1.38 µM)
MIC (Staph. F 422): 0.5 µg/mL (≈ 1.38 µM)
MIC (Strepto 9790): 2 µg/mL (≈ 5.53 µM)

C[C@H]1COc2c(N3CCN(C)CC3)c(F)cc3c(=O)c(C(=O)O)cn1c23 [Example 4, 3S-9-fluoro-3-methyl-10(4-methyl-1-piperazinyl)-7-oxo-7H-pyrido[1,2,3-de][1,4]-benzoxazine-6-carboxylic acid]
MIC (E. coli 4418; 4418): 0.125 µg/mL (≈ 0.346 µM)
MIC (E. coli A 261): ≤ 0.015 µg/mL
MIC (E. coli T 7): 0.03 µg/mL (≈ 0.083 µM)
MIC (Klebsiella 57 USA; Klebsiella, 57USA): 0.125 µg/mL (≈ 0.346 µM)
MIC (Klebsiella 6318; Klebsiella, 6318): 0.125 µg/mL (≈ 0.346 µM)
MIC (Klebsiella 63; [4]): 0.06 µg/mL (≈ 0.166 µM)
MIC (Proteus 1875; [5]): 0.06 µg/mL (≈ 0.166 µM)
MIC (Proteus Vulg. 1017; [6]): 0.06 µg/mL (≈ 0.166 µM)
MIC (Providencia 12012): 0.06 µg/mL (≈ 0.166 µM)
MIC (Pseudomonas Ellsworth): 0.25 µg/mL (≈ 0.692 µM)
MIC (Pseudomonas Walter): 1 µg/mL (≈ 2.77 µM)
MIC (Staph. 133): 0.25 µg/mL (≈ 0.692 µM)
MIC (Staph. 1756): 0.25 µg/mL (≈ 0.692 µM)
MIC (Staph. F 422): 0.25 µg/mL (≈ 0.692 µM)
MIC (Strepto 9790): 1 µg/mL (≈ 2.77 µM)

C[C@@H]1COc2c(N3CCN(C)CC3)c(F)cc3c(=O)c(C(=O)O)cn1c23 [Example 16, 3R-9-fluoro-3-methyl-10(4-methyl-1-piperazinyl)-7-oxo-7H-pyrido[1,2,3-de][1,4]-benzoxazine-6-carboxylic acid]
MIC (E. coli 4418; [1]): 2 µg/mL (≈ 5.53 µM)
MIC (E. coli A 261): 0.25 µg/mL (≈ 0.692 µM)
MIC (E. coli T 7): 1 µg/mL (≈ 2.77 µM)
MIC (Klebsiella 57 USA; [2]): 4 µg/mL (≈ 11.1 µM)
MIC (Klebsiella 6318; [3]): 4 µg/mL (≈ 11.1 µM)
MIC (Klebsiella 63; [4]): 2 µg/mL (≈ 5.53 µM)
MIC (Proteus 1875; [5]): 4 µg/mL (≈ 11.1 µM)
MIC (Proteus Vulg. 1017; [6]): 2 µg/mL (≈ 5.53 µM)
MIC (Providencia 12012): 4 µg/mL (≈ 11.1 µM)
MIC (Pseudomonas Ellsworth): 4 µg/mL (≈ 11.1 µM)
MIC (Pseudomonas Walter): 32 µg/mL (≈ 88.6 µM)
MIC (Staph. 133): 8 µg/mL (≈ 22.1 µM)
MIC (Staph. 1756): 8 µg/mL (≈ 22.1 µM)
MIC (Staph. F 422): 16 µg/mL (≈ 44.3 µM)
MIC (Strepto 9790): 32 µg/mL (≈ 88.6 µM)
